Data reported in ChEMBL document CHEMBL5055666, “Tyrosine-Derived Novel Benzoxazine Active in a Rat Syngenic Mammary Tumor Model of Breast Cancer” (J Med Chem, 2021).
Calls of active or inactive are those of the source. No cut-off for these calls is given here.

Tests used:
[1] = test system: LA7; test: Antiproliferative activity against rat LA7 cells assessed as inhibition of cell growth incubated for 24 hrs by MTT assay; assay type: functional, cell-based; conditions: LA7, 24 h
[2] = AUC(0 to infinity) in Sprague-Dawley rat at 5 mg/kg, po measured upto 24 hrs; assay type: ADME, organism-based; set-up: dose 5 mg/kg, time < 24 hrs, route po; conditions: in vivo
[3] = test system: MDA-MB-231; test: Antiproliferative activity against human MDA-MB-231 cells assessed as inhibition of cell growth incubated for 24 hrs by MTT assay; assay type: functional, cell-based; conditions: MDA-MB-231, 24 h
[4] = test system: MCF7; test: Induction of apoptosis in human MCF7 cells assessed as increase in total apoptotic population at 0.125 to 1 uM after 24 to 48 hrs by Annexin V-FITC/propidium iodide staining based flow cytometric analysis; assay type: functional, cell-based; conditions: dose 0.125-1 µM, time 24-48 hrs
[5] = test system: LA7; test: Antiproliferative activity against rat LA7 cells assessed as inhibition of cell growth incubated for 72 hrs by MTT assay; assay type: functional, cell-based; conditions: LA7, 72 h
[6] = test system: MDA-MB-231; test: Induction of cell cycle arrest in human MDA-MB-231 cells assessed as increase in sub-diploid population at 0.125 to 1 uM after 24 to 48 hrs by propidium iodide staining based flow cytometric analysis; assay type: functional; conditions: dose 0.125-1 µM, time 24-48 hrs
[7] = Apparent oral clearance in Sprague-Dawley rat at 0.5 mg/kg, iv measured upto 24 hrs; assay type: ADME, organism-based; conditions: in vivo
[8] = Apparent oral volume of distribution in Sprague-Dawley rat at 0.5 mg/kg, iv measured upto 24 hrs; assay type: ADME, organism-based; conditions: in vivo
[9] = test system: MCF7; test: Induction of apoptosis in human MCF7 cells assessed as nuclear blabbing after 24 hrs by DAPI staining based fluorescent microscopic analysis; assay type: functional, cell-based; conditions: dose 0.125-1 µM
[10] = Mean residence time in Sprague-Dawley rat at 5 mg/kg, po measured upto 24 hrs; assay type: ADME, organism-based; conditions: in vivo
[11] = test system: MDA-MB-231; test: Antiproliferative activity against human MDA-MB-231 cells assessed as inhibition of cell growth incubated for 48 hrs by MTT assay; assay type: functional, cell-based; conditions: MDA-MB-231, 48 h
[12] = test system: MCF7; test: Antiproliferative activity against human MCF7 cells assessed as inhibition of cell growth incubated for 48 hrs by MTT assay; assay type: functional, cell-based; conditions: MCF7, 48 h
[13] = test system: MDA-MB-231; test: Induction of apoptosis in human MDA-MB-231 cells assessed as increase in total apoptotic population at 0.125 to 1 uM after 24 to 48 hrs by Annexin V-FITC/propidium iodide staining based flow cytometric analysis; assay type: functional, cell-based; conditions: dose 0.125-1 µM, time 24-48 hrs
[14] = test system: MDA-MB-231; test: Induction of intracellular ROS generation in human MDA-MB-231 cells at 0.125 to 1 uM incubated for 24 hrs by DCFH-DA staining-based flow cytometric analysis; assay type: functional, cell-based; conditions: dose 0.125-1 µM
[15] = test system: MDA-MB-231; test: Disruption of mitochondrial membrane integrity in human MDA-MB-231 cells assessed as reduction in mitochondrial membrane potential at 0.125 to 1 uM by JC-1 staining based flow cytometry analysis; assay type: functional, cell-based; conditions: dose 0.125-1 µM
[16] = Tmax in Sprague-Dawley rat at 5 mg/kg, po measured upto 24 hrs; assay type: ADME, organism-based; conditions: in vivo
[17] = test system: LA7; test: Antiproliferative activity against rat LA7 cells assessed as inhibition of cell growth incubated for 48 hrs by MTT assay; assay type: functional, cell-based; conditions: LA7, 48 h
[18] = Cmax in Sprague-Dawley rat at 5 mg/kg, po measured upto 24 hrs; assay type: ADME, organism-based; set-up: time < 24 hrs, dose 5 mg/kg, route po; conditions: in vivo
[19] = test system: Rattus norvegicus; test: Toxicity in Sprague-Dawley rat inoculated with rat LA7 cells assessed as increase in uterine tissue at 5 to 20 mg/kg administered daily for 21 days; assay type: organism-based; conditions: la7, 504 h, dose 5-20 mg/kg, time 21 day
[20] = Induction of cell damage in human HEK293 cells assessed as increase in LDH release at > 20 uM; assay type: cell-based; conditions: hek293, 20 µM
[21] = Mean residence time in Sprague-Dawley rat at 0.5 mg/kg, iv measured upto 24 hrs; assay type: ADME, organism-based; conditions: in vivo
[22] = test system: MCF7; test: Induction of intracellular ROS generation in human MCF7 cells at 0.125 to 1 uM incubated for 24 hrs by DCFH-DA staining-based flow cytometric analysis; assay type: functional, cell-based; conditions: dose 0.125-1 µM
[23] = test system: MCF7; test: Induction of apoptosis in human MCF7 cells assessed as nuclear condensation after 24 hrs by DAPI staining based fluorescent microscopic analysis; assay type: functional, cell-based; conditions: dose 0.125-1 µM
[24] = test system: MCF7; test: Induction of cell cycle arrest in human MCF7 cells assessed as increase in sub-diploid population at 0.125 to 1 uM after 24 to 48 hrs by propidium iodide staining based flow cytometric analysis; assay type: functional; conditions: dose 0.125-1 µM, time 24-48 hrs
[25] = Tmax in Sprague-Dawley rat at 0.5 mg/kg, iv measured upto 24 hrs; assay type: ADME, organism-based; conditions: in vivo
[26] = test system: MCF7; test: Disruption of mitochondrial membrane integrity in human MCF7 cells assessed as reduction in mitochondrial membrane potential at 0.125 to 1 uM by JC-1 staining based flow cytometry analysis; assay type: functional, cell-based; conditions: dose 0.125-1 µM
[27] = Apparent oral clearance in Sprague-Dawley rat at 5 mg/kg, po measured upto 24 hrs; assay type: ADME, organism-based; conditions: in vivo
[28] = test system: MCF7; test: Downregulation of ERalpha expression in human MCF7 cells after 24 hrs by immunoblot analysis; assay type: functional, cell-based
[29] = test system: LA7; test: Antitumor activity against rat LA7 cells inoculated in Sprague-Dawley rat assessed as inhibition of tumor growth at 5 to 20 mg/kg administered daily for 21 days; assay type: functional, organism-based; conditions: dose 5-20 mg/kg, time 21.0 day
[30] = test system: MDA-MB-231; test: Induction of apoptosis in human MDA-MB-231 cells assessed as nuclear condensation after 24 hrs by DAPI staining based fluorescent microscopic analysis; assay type: functional, cell-based; conditions: dose 0.125-1 µM
[31] = test system: MDA-MB-231; test: Induction of apoptosis in human MDA-MB-231 cells assessed as nuclear blabbing after 24 hrs by DAPI staining based fluorescent microscopic analysis; assay type: functional, cell-based; conditions: dose 0.125-1 µM
[32] = test system: MDA-MB-231; test: Induction of cell damage in human MDA-MB-231 cells assessed as increase in LDH release at 0.125 to 100 uM; assay type: functional, cell-based; conditions: dose 0.125-100 µM
[33] = Drug release in tris buffer pH 7.4 after 10 min by membrane dialysis method; assay type: physicochemical; conditions: pH 7.4, 10 min
[34] = test system: MCF-10A; test: Antiproliferative activity against human MCF-10A cells assessed as inhibition of cell growth incubated for 24 hrs by MTT assay; assay type: cell-based
[35] = test system: MCF7; test: Antiproliferative activity against human MCF7 cells assessed as inhibition of cell growth incubated for 24 hrs by MTT assay; assay type: functional, cell-based; conditions: MCF7, 24 h
[36] = test system: MDA-MB-231; test: Antiproliferative activity against human MDA-MB-231 cells assessed as inhibition of cell growth incubated for 72 hrs by MTT assay; assay type: functional, cell-based; conditions: MDA-MB-231, 72 h
[37] = test system: MCF7; test: Upregulation of ERbeta expression in human MCF7 cells after 24 hrs by immunoblot analysis; assay type: functional, cell-based; conditions: dose 500-5 µM
[38] = test system: MCF7; test: Antiproliferative activity against human MCF7 cells assessed as inhibition of cell growth incubated for 72 hrs by MTT assay; assay type: functional, cell-based; conditions: MCF7, 72 h
[39] = test system: Rattus norvegicus; test: Toxicity in Sprague-Dawley rat inoculated with rat LA7 cells assessed as change in organ weight at 5 to 20 mg/kg administered daily for 21 days; assay type: organism-based; conditions: la7, 504 h, dose 5-20 mg/kg, time 21 day
[40] = AUC(0 to infinity) in Sprague-Dawley rat at 0.5 mg/kg, iv measured upto 24 hrs; assay type: ADME, organism-based; set-up: time < 24 hrs, dose 0.5 mg/kg, route iv; conditions: in vivo
[41] = Cmax in Sprague-Dawley rat at 0.5 mg/kg, iv measured upto 24 hrs; assay type: ADME, organism-based; set-up: time < 24 hrs, dose 0.5 mg/kg, route iv; conditions: in vivo
[42] = test system: LA7; test: Antitumor activity against rat LA7 cells inoculated in Sprague-Dawley rat assessed as reduction in formation of neoplastic lesions in lungs at 5 to 20 mg/kg administered daily for 21 days; assay type: functional, organism-based; conditions: dose 5-20 mg/kg, time 21.0 day
[43] = Apparent oral volume of distribution in Sprague-Dawley rat at 5 mg/kg, po measured upto 24 hrs; assay type: ADME, organism-based; conditions: in vivo
[44] = test system: MCF7; test: Induction of cell damage in human MCF7 cells assessed as increase in LDH release at 0.125 to 100 uM; assay type: functional, cell-based; conditions: dose 0.125-100 µM
[45] = Half life in Sprague-Dawley rat at 5 mg/kg, po measured upto 24 hrs; assay type: ADME, organism-based; conditions: in vivo
[46] = test system: MCF-10A; test: Antiproliferative activity against human MCF-10A cells assessed as inhibition of cell growth incubated for 72 hrs by MTT assay; assay type: cell-based
[47] = Half life in Sprague-Dawley rat at 0.5 mg/kg, iv measured upto 24 hrs; assay type: ADME, organism-based; conditions: in vivo
[48] = test system: Rattus norvegicus; test: Toxicity in Sprague-Dawley rat inoculated with rat LA7 cells assessed as mortality at 5 to 20 mg/kg administered daily for 21 days; assay type: organism-based; conditions: la7, 504 h, dose 5-20 mg/kg, time 21 day

SMILES: COc1ccc(C[C@H]2COc3ccccc3N2Cc2ccc(OCCN3CCCC3)cc2)cc1
- IC50 [1]: 660 nM
- AUC(0-inf) [2]: 506 ng·h/mL
- IC50 [3]: 650 nM
- Activity [4]: Active
- IC50 [5]: 190 nM
- Activity [6]: Dose-dependent effect
- CL/F [7]: 68.8 mL/min/kg
- Vd/F [8]: 19.9 L/kg
- Activity [9]: Dose-dependent effect
- MRT [10]: 16.1 h
- IC50 [11]: 700 nM
- IC50 [12]: 300 nM
- Activity [13]: Active
- Activity [14]: Active
- Activity [15]: Active
- Tmax [16]: 0.25 h
- IC50 [17]: 240 nM
- Cmax [18]: 43.2 ng/mL
- Activity [19]: Non-Toxic
- Activity [20]: Toxic
- MRT [21]: 4.66 h
- Activity [22]: Active
- Activity [23]: Dose-dependent effect
- Activity [24]: Dose-dependent effect
- Tmax [25]: 0.83 h
- Activity [26]: Active
- CL/F [27]: 176 mL/min/kg
- Activity [28]: Dose-dependent effect
- Activity [29]: Active
- Activity [30]: Dose-dependent effect
- Activity [31]: Dose-dependent effect
- Activity [32]: Active
- Drug transport [33]: 90%
- IC50 [34]: > 25000 nM
- IC50 [35]: 200 nM
- IC50 [36]: 700 nM
- Activity [37]: Dose-dependent effect
- IC50 [38]: 250 nM
- Activity [39]: Non-Toxic
- AUC(0-inf) [40]: 124 ng·h/mL
- Cmax [41]: 49.6 ng/mL
- Activity [42]: Active
- Vd/F [43]: 140 L/kg
- Activity [44]: Active
- half-life [45]: 8.97 h
- IC50 [46]: > 18000 nM
- half-life [47]: 3.42 h
- Activity [48]: Non-Toxic
